Results taken from patent US12268702B2, “Antitumor pharmaceutical composition comprising azvudine and chemotherapeutic agent” (HENAN GENUINE BIOTECH CO., LTD., priority 2023, dated 2025).

Experiments:
[1] = tested on: MOLT4 xenograft tumor model; experiment: Human acute lymphoblastic leukemia MOLT4 cell subcutaneous xenograft tumor model; assay type: in vivo
Experimental: Human acute lymphoblastic leukemia cells MOLT4 (Cat. No.: ECACC-85011413) were in vitro suspended and cultured in RPMI 1640 medium containing 10% fetal bovine serum, 100 U/mL penicillin and 100 μg/mL streptomycin, in a 37° C. and 5% CO2 incubator. When the cell saturation achieved 80%-90% and the cell number reached the requirement, the cells were collected, counted and inoculated.
0.2 mL (10×10^6) of MOLT4 cells (added with Matrigel at a volume ratio of 1:1) were subcutaneously inoculated on the right back of each mouse. The grouping administration was started when the average tumor volume reached about 148 mm^3.
The changes of tumor volume and tumor weight in each group after administration of test drugs for treating SCID Beige mice with MOLT4 cell subcutaneous xenograft tumor are shown in Table 10 and Table 11.

[2] = tested on: OVCAR-8 human ovarian cancer model; experiment: OVCAR-8 human ovarian cancer subcutaneous xenograft tumor model; assay type: in vivo; conditions: azvudine 1 mg/kg, paclitaxel 15 mg/kg, avastin 10 mg/kg, combinations 1 + 15 and 1 + 10 mg/kg
Experimental: OVCAR-8 cells were cultured in RPMI1640 medium containing 10% fetal bovine serum. OVCAR-8 cells in the exponential growth phase were collected, resuspended in PBS to an appropriate concentration and mixed with Matrigel at a ratio of 1:1. The resulting mixture was used for subcutaneous inoculation of tumor in mice.
1×10^7 OVCAR-8 cells were inoculated subcutaneously on the right side of female mice. When the average tumor volume achieved 174.25 mm^3, the mice were randomly divided into groups according to tumor size.
The experimental protocols for animal experiments in this experiment were reviewed and approved by the CrownBio IACUC committee. During the experiment, the animal experiments were performed in accordance with the requirements of AAALAC. After tumor inoculation was completed, the impact of tumor growth and treatment on normal behavior of animals was routinely monitored, specifically the activity of experimental animals, food intake and water intake, body weight gain or loss (body weight was measured twice a week), eye, hair and other abnormalities. The clinical symptoms observed during the experiment were recorded in the original data. The tumor volume was calculated according to the following formula: tumor volume (mm^3)=½×(a×b^2) (where a represents long diameter and b represents short diameter).
Relative tumor proliferation rate, T/C %, refers to the percentage value of the relative tumor volume or tumor weight of the treatment group and the control group at a certain time point, which was calculated as follows: • T/C %=TRTV/CRTV×100% (TRTV: the average RTV of the treatment group; CRTV: the average RTV of the vehicle control group; RTV=Vt/V0, where V0 is the tumor volume of the animal when grouped, and Vt is the tumor volume of the animal after treatment); • or T/C %=TTW/CTW×100% (TTW: the average tumor weight of the treatment group at the end of the experiment; CTW: the average tumor weight of the vehicle control group at the end of the experiment).
Relative tumor inhibition rate, TGI (%), was calculated according to the formula as follows: TGI %=(1−T/C)×100%. (T and C are the relative tumor volumes (RTV) or tumor weights (TW) of the treatment group and the control group at a specific time point).
To compare tumor volumes of different treatment groups on a given day, first the assumption of homogeneity of variance among all groups was tested using the Bartlett test. When the p-value of Bartlett's test was not less than 0.05, whether all group means were equal was tested using one-way ANOVA. If the p-value of the one-way ANOVA was less than 0.05, pairwise comparisons among all groups were conducted using Tukey's HSD test, or pairwise comparisons between each treatment group and control group were conducted using Dunnett's t-test. When the p-value of Bartlett's test was less than 0.05, whether the medians of all groups were equal was tested using Kruskal Wallis test. If the p-value of the Kruskal Wallis test was less than 0.05, pairwise comparisons among all groups or between each treatment group and control group were conducted using Conover test, and the corresponding p-value correction was performed according to the number of groups in the multiple test.

[3] = 28th day after start of administration, azvudine 1 mg/kg
[4] = based on tumor volume, 28th day, azvudine 2 mg/kg in Table 10, cyclophosphamide 50 mg/kg, combination 1 + 50 mg/kg

[N-]=[N+]=N[C@]1(CO)O[C@@H](n2ccc(N)nc2=O)[C@@H](F)[C@@H]1O [Azvudine, azvudine]
T/C [1, 3]: 33.89
TGI [1, 3]: 69.73%
Tumor volume [1, 3]: 979 mm^3
Tumor volume (mm^3) on the 28th day ([1]; 28th day of administration, SCID Beige mice, QD x 4 weeks, azvudine 2 mg/kg in Table 10, cyclophosphamide 50 mg/kg i.p., combination 1 + 50 mg/kg): 986 ± 179 mm^3
Tumor weight (g) (On the 28th day) ([1]; 28th day of administration, azvudine 1 mg/kg, cyclophosphamide 50 mg/kg, combination 1 + 50 mg/kg): 1.168 ± 0.145 g
T/C (%) [1, 4]: 33.55%
TGI (%) [1, 4]: 69.49%
T/Cweight (%) ([1]; based on tumor weight, 28th day, azvudine 1 mg/kg, cyclophosphamide 50 mg/kg, combination 1 + 50 mg/kg): 39.31%
T/C (%) ([2]; 34th day after grouping): 81.91%
TGI (%) ([2]; 34th day after grouping): 18.09%
Tumor volume (x ± S) ([2]; 34th day after grouping): 460.67 ± 105.37(6)
average tumor volume ([2]; 34th day of administration): 460.67 mm^3
